Experimental data: patent publication US20090104196A1, “Antibodies For Use in Identifying and/or Scoring Prostate Cancer and Androgen Receptor-Dependent Gene Expression Control” (priority 2005, published 2009)
“Also recorded” adds a separate entry of the source.

How the values were obtained:
[1] = test system: LSD1-induced activation of AR; assay: Transient transfection AR-dependent luciferase reporter assay in 293 cells (LSD1 + AR co-expression); type: cell-based; settings: R1881, 3×10^−3 M pargyline, 1×10^−3 M deprenyl, or 1×10^−4 M clorgyline for 18 hours, FIG. 4c
Description: (§1) 293 and CV-1 cells were cultured and transfected as described^12. LNCaP cells were cultured in phenol-red-free RPMI1640 supplemented with 10% double-stripped fetal calf serum (dsFCS) and transfected with Effectene (Qiagen). The following amounts per well were used: MMTV-LUC, ARE2X-TATA-LUC, ARE2X-TK-LUC, TK-LUC, TREp-LUC, β-RE-LUC, ERE2X-TATA-LUC, PSA-LUC, Slp-ARU-TATA-LUC 500 ng each, 25 ng expression plasmids for AR, PR, ERα, RARα, and TRβ; 500 to 700 ng expression plasmids for LSD1 1-174, LSD1 175-246, LSD1 247-852, LSD1Δ281-360, LSD1ΔAO, pSUPER-control, and pSUPER-LSD1; 100 to 700 ng expression plasmids for LSD1 were transfected per well. […] Luciferase activity was assayed as described^9. All experiments were repeated at least five times in duplicate.

LSD1 = molecular target: T1, LSD1 (Homo sapiens, UniProt O60341); assay: Chromatin immunoprecipitation (ChIP) of histone methylation marks at the PSA promoter in LNCaP cells; type: cell-based
T1 construct: endogenous in cells; host or cells: LNCaP cells
Description: ChIP experiments were performed essentially as described^14. […] LNCaP cells were transfected three days before harvesting for ChIP with or without siRNA (Qiagen) following the manufacture's instructions. Immunoprecipitation was performed with specific antibodies (α-monoMeK9H3, α-diMeK9H3, α-triMeK9H3, α-monoMeK4H3, α-diMeK4H3, α-triMeK4H3, α-H3 (abcam), α-LSD1, and α-AR PG21 (Upstate Biotechnology) on GammaBind TMSepharose 4B (GE-Healthcare). For PCR, 1-5 μl out of 50 μl DNA extract was used. For Re-ChIP assays, immunoprecipitations were sequentially washed with TSE I, TSE II, buffer III, and TE^14. Complexes were eluted by incubation with 10 mM DTT at 37° C. for 30 min, diluted 50 times with dilution buffer^14 followed by a second immunoprecipitation with the indicated antibody. Primer sequences were as follows: exon 4, PSA (+3909/+4067) 5′-[…]-3′ and 5′-[…]-3′; middle, PSA (−2223/−1951) 5′-[…]-3′ and 5′-[…]-3′; PCR primers for ARE I+II (PSA (−459/−121)) and ARE III (PSA ([…])), GAPDH, and U6 have been previously described^7, 15, 16.

[2] = test system: other nuclear receptors (PR, ERα, RARα, TRβ); assay: Reporter assays for other nuclear hormone receptors in 293 cells; type: cell-based; settings: pargyline, FIG. 10k
Description: as §1

PSA gene = assay: qRT-PCR of endogenous PSA gene expression in LNCaP cells; type: cell-based, human; settings: pargyline, FIG. 4d
Description: DNAsel-treated RNA isolated using RNAwiz (Ambion) was used for reverse transcription. Quantitative PCR was performed in an ABI PRISM 7700 sequence detector. Product formation was detected by incorporation of SYBR Green I using ROX as a passive reference (ABgene). The expression ratios of the analyzed cDNAs were related to the normalized Cp of the housekeeping gene GAPDH in control and sample. The following primers were used: GAPDH: 5′-[…]-3′; 5′-[…]-3′; PSA: 5′-[…]-3′; 5′-[…]-3′. Statistical analysis for qPCR was performed by group-wise comparison based on PCR efficiencies and the mean crossing point deviation between sample and control group using Relative Expression Software Tool^19. Experiments were repeated and analysed three times.

[3] = R1881, PSA promoter, pargyline, FIG. 8

Row | SMILES | LSD1-induced activation of AR [1] | demethylation of mono- and dimethyl H3-K9 during androgen-induced transcription (LSD1; R1881, PSA promoter (ARE I+II), pargyline 18 hours, FIG. 3b) | methylation levels of trimethyl H3-K9 (LSD1; R1881, PSA promoter, pargyline, FIG. 3b) | methylation status of H3-K27 (LSD1; [3]) | methylation status of H4-K20 (LSD1; [3]) | methylation of histone H3 at lysine 4 (H3-K4) (LSD1; in vivo ChIP, pargyline, FIG. 3b) | activity of other nuclear receptors [2] | androgen-induced expression of the endogenous PSA gene (PSA gene) | androgen-induced expression of the endogenous PSA gene (PSA gene; listed as Pargyline)
1 | C#CCN(C)CCCOc1ccc(Cl)cc1Cl [clorgyline, N-methyl-N-propargyl-3-(2,4-dichlorophenoxy-)propylamine] | severely impair | – | – | – | – | – | – | – | –
2 | C#CCN(C)Cc1ccccc1 [pargyline, N-methyl-N-2-propynylbenzylamine] | severely impair | blocks | remain unchanged | remain unchanged | remain unchanged | not influenced | does not influence; also recorded: fails to block | blocks | reduces
3 | C#CCN(C)[C@H](C)Cc1ccccc1 [deprenyl, (R)-(−)-N,2-dimethyl-N-2-propynylphenethylamine] | severely impair | – | – | – | – | – | – | – | –
